Reference: patent US8779144B2, “Bicycloheteroaryl compounds as P2X7 modulators and uses thereof” (Evotec (US) Inc., priority 2006, dated 2014)

What was measured:
[1] = Half-life in human liver microsomes (HLM); format: in vitro ADME; conditions: 1 μM compound, 0.78 mg/mL HLM, NADPH, pH 7.4, 37° C.
Procedure: Test compounds (1 μM) are incubated with 3.3 mM MgCl2 and 0.78 mg/mL HLM (HL101) in 100 mM potassium phosphate buffer (pH 7.4) at 37° C. on the 96-deep well plate. The reaction mixture is split into two groups, a non-P450 and a P450 group. NADPH is only added to the reaction mixture of the P450 group. An aliquot of samples of P450 group is collected at 0, 10, 30, and 60 min time point, where 0 min time point indicated the time when NADPH is added into the reaction mixture of P450 group. An aliquot of samples of non-P450 group is collected at −10 and 65 min time point. Collected aliquots are extracted with acetonitrile solution containing an internal standard. The precipitated protein is spun down in centrifuge (2000 rpm, 15 min). The compound concentration in supernatant is measured by LC/MS/MS system.
The half-life value is obtained by plotting the natural logarithm of the peak area ratio of compounds/internal standard versus time. The slope of the line of best fit through the points yields the rate of metabolism (k). This is converted to a half-life value using following equations: Half-life=ln 2/k

[2] = tested on: IL-1β release from THP-1 cells; assay: IL-1β release assay in differentiated THP-1 cells stimulated with BzATP (ELISA); format: cell-based; conditions: Homo sapiens; for inhibition at 0.3 µM: 0.3 uM compound, BzATP 250 uM, read-out: IL-1β % Inhib. @ 0.3 uM.; for IC50: released IL-1β as in Example 9, four parameter logistic fit, read-out: IL-Iβ IC50
Procedure: THP-1 cells (ATCC Cat #285-IF-100) are plated in 96 well plates at a concentration of 200,000 cells per well and allowed to differentiate in RPMI-1640 media (ATCC Cat #30-2001) containing 10% FBS, 100 IU/mL penicillin, 100 ug/mL streptomycin, 100 ng/mL LPS and 100 ng/mL IFN-γ for 16 hours. Following differentiation, the cells are treated for an additional 2 hours in RPMI-1640 media containing 100 IU/mL penicillin, 100 ug/mL streptomycin and fresh LPS at 100 ng/mL. The cells are then pretreated for 30 minutes with the compound of interest at the appropriate concentration in RPMI media containing 100 IU/mL penicillin, 100 ug/mL streptomycin. Following the pretreatment 2′,3′-O-(4-benzoylbenzoyl)-adenosine 5′-triphosphate (Sigma Aldrich Cat # B6396) is added to a final concentration of 250 uM and the cells are incubated for an additional 45 minutes. 30 uL of cell supernatant is then collected and IL-113 levels determined via ELISA (R&D systems Cat. # HSLB50) according to manufacturer's recommendations using the Tecan Safire plate reader. Background adjusted IL-1β levels of drug treated and non-treated cells are used to calculate the percent inhibition. […]
The compounds set forth in Table 1 were tested for activity in a cellular model as described herein. Specifically, cells were pretreated with differing amounts of the compound under test and released IL-1β determined as in Example 9, above. Measurements were made and IC50 values, presented in Table 2, below, were determined by fitting the data to a four parameter logistic equation using GraphPad Prism software (GraphPad Software, Inc). The equation may be expressed by the following formula: Y=Bottom+(Top−Bottom)/(1+10^((LogEC50−X)*HillSlope)) Where X is the logarithm of concentration, Y is the response and Y starts at Bottom and goes to Top with a sigmoid shape.

Row | half-life at 1 μM [1] [min] | IC50 [2] [nM] | SMILES | inhibition at 0.3 µM [2] [%]
1 | 19.2 | 0.15 | C[C@H](C(N)=O)n1ccc2c(C(=O)NCC34CC5CC(CC(C5)C3)C4)cccc2c1=O [Compound 2064, 2-((R)-1-Carbamoyl-ethyl)-1-oxo-1,2-dihydro-isoquinoline-5-carboxylic acid (adamantan-1-ylmethyl)-amide] | > 76
2 | 18 | 54 | O=C(NCC1CCCCCC1)c1cccc2c(=O)n(CCO)ccc12 [Compound 2041, 2-(2-Hydroxy-ethyl)-1-oxo-1,2-dihydro-isoquinoline-5-carboxylic acid cycloheptylmethyl-amide] | > 76
